# Reference: US12338220B2, “Antiviral pyrazolopiridinone compounds” (Novartis AG, priority 2019, dated 2025)
# pEC50, pIC50: −log10 of the molar value. Like-named read-outs stand apart in the source and are kept apart here.
# Key:
# CMV = test: microbe, parasite or virus in culture; type: cell-based; settings: Human betaherpesvirus 5, 72 h, read-out: CMV-Luc Cellular EC50, NN-NHDF cells, MOI 1, 72 hrs
# CMV-polymerase = CMV-polymerase (Human cytomegalovirus (strain AD169) (HHV-5) (Human herpesvirus 5), UniProt P08546); test: biochemical
# [1] = CMV-polymerase Biochemical IC50
# [2] = read-out: CMV-polymerase Biochemical IC50
compound,measurement,setting,value
"Cn1nc(C2=NOC(c3ccc(C#N)cc3)C2)c2c1C(=O)N(CC1(S(=O)(=O)C3CC3)CC1)CC2 (stereo not drawn) [Example 31, 4-(3-(6-((1-(Cyclopropylsulfonyl)cyclopropyl)methyl)-1-methyl-7-oxo-4,5,6,7-tetrahydro-1H-pyrazolo[3,4-c]pyridin-3-yl)-4,5-dihydroisoxazol-5-yl)benzonitrile]",pEC50,CMV,7.00
same,pIC50,CMV-polymerase; [1],7.92
"Cn1nc(-c2cc(Cc3ccc(C#N)cc3)on2)c2c1C(=O)N(CC1(S(=O)(=O)C3CC3)CC1)CC2 [Example 34, 4-((3-(6-((1-(Cyclopropylsulfonyl)cyclopropyl)methyl)-1-methyl-7-oxo-4,5,6,7-tetrahydro-1H-pyrazolo[3,4-c]pyridin-3-yl)isoxazol-5-yl)methyl)benzonitrile]",pEC50,CMV,8.00
same,pIC50,CMV-polymerase; [1],9.00
"Cn1nc(-c2cn(Cc3ccc(C#N)cc3)nn2)c2c1C(=O)N(CC1(S(=O)(=O)C3CC3)CC1)CC2 [Example 35, 4-((4-(6-((1-(Cyclopropylsulfonyl)cyclopropyl)methyl)-1-methyl-7-oxo-4,5,6,7-tetrahydro-1H-pyrazolo[3,4-c]pyridin-3-yl)-1H-1,2,3-triazol-1-yl)methyl)benzonitrile]",pEC50,CMV,7.42
same,pIC50,CMV-polymerase; [1],8.52
"Cn1nc(-c2cn(CC3CCC(F)(F)CC3)nn2)c2c1C(=O)N(CC1(S(=O)(=O)C3CC3)CC1)CC2 [Example 36, 6-((1-(Cyclopropylsulfonyl)cyclopropyl)methyl)-3-(1-((4,4-difluorocyclohexyl)methyl)-1H-1,2,3-triazol-4-yl)-1-methyl-5,6-dihydro-1H-pyrazolo[3,4-c]pyridin-7(4H)-one]",pEC50,CMV,6.24
same,pIC50,CMV-polymerase; [2],8.30
"Cn1nc(C(=O)NOc2ccc(Cl)cc2)c2c1C(=O)N(CC1(S(=O)(=O)C3(C)CC3)CC1)CC2 [Example 37, N-(4-Chlorophenoxy)-1-methyl-6-((1-((1-methylcyclopropyl)sulfonyl)cyclopropyl)methyl)-7-oxo-4,5,6,7-tetrahydro-1H-pyrazolo[3,4-c]pyridine-3-carboxamide]",pEC50,CMV,6.98
same,pIC50,CMV-polymerase; [2],8.15
"Cn1nc(C(=O)NCc2ccc(Cl)cc2)c2c1C(=O)N(CC1(S(=O)(=O)C(F)F)CC1)CC2 [Example 39, N-(4-Chlorobenzyl)-6-((1-((difluoromethyl)sulfonyl)cyclopropyl)methyl)-1-methyl-7-oxo-4,5,6,7-tetrahydro-1H-pyrazolo[3,4-c]pyridine-3-carboxamide]",pEC50,CMV,6.42
same,pIC50,CMV-polymerase; [1],7.60
"N#Cc1ccc(CNC(=O)c2nn(C3CC3)c3c2CCN(CC2(S(=O)(=O)C4CC4)CC2)C3=O)cc1 [Example 43, N-(4-Cyanobenzyl)-1-cyclopropyl-6-((1-(cyclopropylsulfonyl)cyclopropyl)methyl)-7-oxo-4,5,6,7-tetrahydro-1H-pyrazolo[3,4-c]pyridine-3-carboxamide]",pEC50,CMV,7.18
same,pIC50,CMV-polymerase; [1],8.70
"O=C(NCc1ccc(Cl)cc1)c1n[nH]c2c1CCN(CC1(S(=O)(=O)C3CC3)CC1)C2=O [Example 44, N-(4-Chlorobenzyl)-6-((1-(cyclopropylsulfonyl)cyclopropyl)methyl)-7-oxo-4,5,6,7-tetrahydro-1H-pyrazolo[3,4-c]pyridine-3-carboxamide]",pEC50,CMV,7.12
same,pIC50,CMV-polymerase; [1],8.40
"CS(=O)(=O)C1(CN2CCc3c(nn4c3C(=O)N(Cc3ccc(C#N)cc3)CC4)C2=O)CC1 [Example 46, 4-((8-((1-(Methylsulfonyl)cyclopropyl)methyl)-1,7-dioxo-3,4,7,8,9,10-hexahydropyrido[3′,4′:3,4]pyrazolo[1,5-a]pyrazin-2(1H)-yl)methyl)benzonitrile]",pEC50,CMV,6.13
same,pIC50,CMV-polymerase; [1],7.39
"N#Cc1ccc(CNC(=O)c2nn(CC3(CO)CC3)c3c2CCN(CC2(S(=O)(=O)C4CC4)CC2)C3=O)cc1 [Example 47, N-(4-Cyanobenzyl)-6-((1-(cyclopropylsulfonyl)cyclopropyl)methyl)-1-((1-(hydroxymethyl)cyclopropyl)methyl)-7-oxo-4,5,6,7-tetrahydro-1H-pyrazolo[3,4-c]pyridine-3-carboxamide]",pEC50,CMV,7.38
same,pIC50,CMV-polymerase; [1],8.70
"CS(=O)(=O)C1(CN2CCc3c(C(=O)NCc4ccc(C#N)cc4)nn(CC4(CO)CC4)c3C2=O)CC1 [Example 48, N-(4-Cyanobenzyl)-1-((1-(hydroxymethyl)cyclopropyl)methyl)-6-((1-(methylsulfonyl)cyclopropyl)methyl)-7-oxo-4,5,6,7-tetrahydro-1H-pyrazolo[3,4-c]pyridine-3-carboxamide]",pEC50,CMV,6.48
same,pIC50,CMV-polymerase; [1],7.96
"CC(C)(CO)S(=O)(=O)C1(CN2CCc3c(C(=O)NCc4ccc(C#N)cc4)n[nH]c3C2=O)CC1 [Example 49, N-(4-Cyanobenzyl)-6-((1-((1-hydroxy-2-methylpropan-2-yl)sulfonyl)cyclopropyl)methyl)-7-oxo-4,5,6,7-tetrahydro-1H-pyrazolo[3,4-c]pyridine-3-carboxamide]",pEC50,CMV,7.24
same,pIC50,CMV-polymerase; [1],8.40
"Cn1nc(C(=O)NCc2ccc(Cl)cc2)c2c1C(=O)N(CC1(S(=O)(=O)C(C)(C)CO)CC1)CC2 [Example 50, N-(4-Chlorobenzyl)-6-((1-((1-hydroxy-2-methylpropan-2-yl)sulfonyl)cyclopropyl)methyl)-1-methyl-7-oxo-4,5,6,7-tetrahydro-1H-pyrazolo[3,4-c]pyridine-3-carboxamide]",pEC50,CMV,7.70
same,pIC50,CMV-polymerase; [1],9.00
"Cn1nc(C(=O)NCc2ccc(Cl)nc2)c2c1C(=O)N(CC1(S(=O)(=O)C(C)(C)CO)CC1)CC2 [Example 51, N-((6-Chloropyridin-3-yl)methyl)-6-((1-((1-hydroxy-2-methylpropan-2-yl)sulfonyl)cyclopropyl)methyl)-1-methyl-7-oxo-4,5,6,7-tetrahydro-1H-pyrazolo[3,4-c]pyridine-3-carboxamide]",pEC50,CMV,6.76
same,pIC50,CMV-polymerase; [2],8.22
"Cn1nc(C(=O)NCc2ccc(C#N)cc2)c2c1C(=O)N(CC1(S(=O)(=O)C(C)(C)CO)CC1)CC2 [Example 52, N-(4-Cyanobenzyl)-6-((1-((1-hydroxy-2-methylpropan-2-yl)sulfonyl)cyclopropyl)methyl)-1-methyl-7-oxo-4,5,6,7-tetrahydro-1H-pyrazolo[3,4-c]pyridine-3-carboxamide]",pEC50,CMV,7.72
same,pIC50,CMV-polymerase; [2],9.00
"Cn1nc(C(=O)NCc2ccc(F)cc2)c2c1C(=O)N(CC1(S(=O)(=O)C(C)(C)CO)CC1)CC2 [Example 53, N-(4-Fluorobenzyl)-6-((1-((1-hydroxy-2-methylpropan-2-yl)sulfonyl)cyclopropyl)methyl)-1-methyl-7-oxo-4,5,6,7-tetrahydro-1H-pyrazolo[3,4-c]pyridine-3-carboxamide]",pEC50,CMV,6.85
same,pIC50,CMV-polymerase; [2],8.15
"C[C@H](NC(=O)c1nn(C)c2c1CCN(CC1(S(=O)(=O)C(C)(C)CO)CC1)C2=O)c1ccc(C#N)cc1 [Example 54, (S)-N-(1-(4-Cyanophenyl)ethyl)-6-((1-((1-hydroxy-2-methylpropan-2-yl)sulfonyl)cyclopropyl)methyl)-1-methyl-7-oxo-4,5,6,7-tetrahydro-1H-pyrazolo[3,4-c]pyridine-3-carboxamide]",pEC50,CMV,7.28
same,pIC50,CMV-polymerase; [2],8.70
"C[C@@H](NC(=O)c1nn(C)c2c1CCN(CC1(S(=O)(=O)C(C)(C)CO)CC1)C2=O)c1ccc(C#N)cc1 [Example 55, (R)-N-(1-(4-Cyanophenyl)ethyl)-6-((1-((1-hydroxy-2-methylpropan-2-yl)sulfonyl)cyclopropyl)methyl)-1-methyl-7-oxo-4,5,6,7-tetrahydro-1H-pyrazolo[3,4-c]pyridine-3-carboxamide]",pEC50,CMV,< 5.00
same,pIC50,CMV-polymerase; [2],6.22
